{
  "source": "patent US5190957A",
  "about": "“Treatment of multi-drug resistant tumors with quinolyl-and isoquinolyloxazole-2-ones” (Merrell Dow Pharmaceuticals Inc., priority 1992, dated 1993)",
  "key": {"[1]": {"test_system": "CHO^R cells (vinblastine (VBL) resistant tumor cell line)", "experiment": "Reversal of multidrug resistance (MDR) in CHO^R cells: cell growth with test compound with or without vinblastine (VLB)", "type": "cell-based", "conditions": "72 hr", "description": "CHO^R cells were plated at a density of 1X105/35mm dish and were allowed to grow overight at 37° C. in a CO2 incubator. The medium was replaced with medium containing the compounds and vinblastine (0.2 μg/ml). The cells were allowed to grow for further 72 hr and the cell number was determined by Coulter counter after trypsiunization."}, "[2]": {"test_system": "multidrug-resistant tumors", "conditions": "reported previously; cited from earlier work"}},
  "note": "Where two headings read alike, the source gives them in different places.",
  "data": [
    {"smiles": "CCCc1[nH]c(=O)oc1-c1ccnc2ccccc12", "note": "[4-PROPYL-5-(4-QUINOLINYL)-2(3H)-OXAZOLONE]", "values": [
      {"measurement": "inhibition at 0.1 µg/mL", "setting": "[1]; 0.1 μg/ml compound + vinblastine 0.2 μg/ml, read-out: % Inhibition of Cell Growth, Compound + VLB", "result": 4, "unit": "%"},
      {"measurement": "inhibition at 0.1 µg/mL", "setting": "[1]; 0.1 μg/ml compound, no VLB, read-out: % Inhibition of Cell Growth, Compound Only", "result": 0, "unit": "%"},
      {"measurement": "inhibition at 1 µg/mL", "setting": "[1]; 1 μg/ml compound + vinblastine 0.2 μg/ml, read-out: % Inhibition of Cell Growth, Compound + VLB", "result": 43, "unit": "%"},
      {"measurement": "inhibition at 1 µg/mL", "setting": "[1]; 1 μg/ml compound, no VLB, read-out: % Inhibition of Cell Growth, Compound Only", "result": 0, "unit": "%"},
      {"measurement": "inhibition at 5 µg/mL", "setting": "[1]; 5 μg/ml compound + vinblastine 0.2 μg/ml, read-out: % Inhibition of Cell Growth, Compound + VLB", "result": 93, "unit": "%"},
      {"measurement": "inhibition at 5 µg/mL", "setting": "[1]; 5 μg/ml compound, no VLB, read-out: % Inhibition of Cell Growth, Compound Only", "result": 0, "unit": "%"},
      {"measurement": "inhibition at 10 µg/mL", "setting": "[1]; 10 μg/ml compound + vinblastine 0.2 μg/ml, read-out: % Inhibition of Cell Growth, Compound + VLB", "result": 93, "unit": "%"},
      {"measurement": "inhibition at 10 µg/mL", "setting": "[1]; 10 μg/ml compound, no VLB, read-out: % Inhibition of Cell Growth, Compound Only", "result": 14, "unit": "%"}
    ]},
    {"smiles": "C=C[C@H]1C[N@@]2CC[C@H]1C[C@@H]2[C@@H](O)c1ccnc2ccc(OC)cc12", "note": "[Quinidine]", "values": [
      {"measurement": "reversal of drug resistance in multidrug-resistant tumors", "setting": "[2]", "result": "reverse drug resistance"}
    ]},
    {"smiles": "CC[C@]1(O)C[C@@H]2CN(CCc3c([nH]c4ccccc34)[C@@](C(=O)OC)(c3cc4c(cc3OC)N(C)[C@H]3[C@@](O)(C(=O)OC)[C@H](OC(C)=O)[C@]5(CC)C=CCN6CC[C@]43[C@@H]65)C2)C1", "note": "[VLB, vinblastine, reference compound]", "values": [
      {"measurement": "effect on cell growth of VLB alone", "setting": "[1]; VLB alone, 0.2 μg/ml", "result": "did not have any effect on cell growth"}
    ]},
    {"smiles": "COc1ccc([C@@H]2Sc3ccccc3N(CCN(C)C)C(=O)[C@@H]2OC(C)=O)cc1", "note": "[diltiazem]", "values": [
      {"measurement": "reversal of drug resistance in multidrug-resistant tumors", "setting": "[2]", "result": "reverse drug resistance"}
    ]},
    {"smiles": "COC(=O)[C@H]1[C@H]2C[C@@H]3c4[nH]c5cc(OC)ccc5c4CCN3C[C@H]2C[C@@H](OC(=O)c2cc(OC)c(OC)c(OC)c2)[C@@H]1OC", "note": "[reserpine]", "values": [
      {"measurement": "reversal of drug resistance in multidrug-resistant tumors", "setting": "[2]", "result": "reverse drug resistance"}
    ]},
    {"smiles": "COc1ccc(CCN(C)CCCC(C#N)(c2ccc(OC)c(OC)c2)C(C)C)cc1OC", "note": "(stereo not shown) [verapamil]", "values": [
      {"measurement": "reversal of drug resistance in multidrug-resistant tumors", "setting": "[2]", "result": "reverse drug resistance"}
    ]}
  ]
}
